These results are taken from US20060258726A1, “1,5-Disubstituted imidazolidin-2-one derivatives for use as ep4 receptor agonists in the treatment of eye and bone diseases” (priority 2002, published 2006).

Each structure is given as a SMILES string.

One assay relates to intracellular cAMP. The experiment in a line: Effect of PGE2 on intracellular cAMP in osteoblastic cell lines. In kind it is cell-based, rat.
The test system of assay [1] is EP4 mRNA. The experiment in a line: EP4 mRNA levels in bone-derived cell lines (Northern blot). In kind it is cell-based, rat. Here is the method: (§1) RP-1 periosteal cells are spontaneously immortalized from primary cultures of periosteal cells from tibae of 4-week old Sprague-Dawley rats and are cultured in DMEM (BRL, Gaithersburg, Md.) with 10% fetal bovine serum (JRH Biosciences, Lenexa, Kans.).
RCT-1 and RCT-3 are clonal cell lines immortalized by SV-40 large T antigen from cells released from fetal rat calvair by a cmbination collagenase/hyaluronidase digestion. RCT-1 cells, derived from cells released during the first 10 minutes of digestion (fraction I), are cultured in RPMI 1640 medium (BRL) with 10% fetal bovine serum and 0.4 mg/ml G418 (BRL). These cells differentiate and express osteoblastic features upon retinoic acid treatment. RCT-3 cells, immortalized from osteoblast-enriched fraction III cells, are cultured in F-12 medium (BRL) with 5% Fetal bovine serum and 0.4 mg/ml G418. TRAB-11 cells are also immortalized by SV40 large T antigen from adult rat tibia and are cultured in RPML 1640 medium with 10% FBS and 0.4 mg/ml G418. ROS 17/2.8 rat osteosarcoma cells are cultured in F-12 containing 5% FBS. Osteoblast-enriched (fraction E) primary fetal rat calvaria cells are obtained by collagenase/hyaluronidase digestion of calvariae of 19 day-old rat fetuses. See Rodan et al., Growth stimulation of rat calvaria osteoblastic cells by acidic FGF, Endocrinology, 121, 1919-1923 (1987), which is incorporated by reference herein in its entirety. Cells are released during 30-50 minutes digestion (fraction E) and are cultured in F-12 medium containing 5% […].
(§2) Total RNA is extracted from the tibial metaphysis or diaphysis and calvaria using a guanidinium isothiocyanate-phenol-chloroform method after pulverizing frozen bone samples by a tissue homogenizer. See P. Chomczynski et al., Single-step method of RNA isolation by acid guanlidium thiocyanate-phenol-chloroform extraction., Analyt Biochem, 162, 156-159 (1987), which is incorporated by reference herein in its entirety. RNA samples ([…]) are separated on 0.9% agarose/formaldehyde gels and transferred onto nylon membranes (Boehringer Mannheim, Germany). […]

The subject of assay [2] is EP2 mRNA. The experiment in a line: EP2 mRNA in RP-1 periosteal cells (Northern blot). In kind it is cell-based, rat. The settings on record: RP-1 cells. Here is the method: as §1
(§3) Total RNA is extracted from the tibial metaphysis or diaphysis and calvaria using a guanidinium isothiocyanate-phenol-chloroform method after pulverizing frozen bone samples by a tissue homogenizer. See P. Chomczynski et al., Single-step method of RNA isolation by acid guanlidium thiocyanate-phenol-chloroform extraction., Analyt Biochem, 162, 156-159 (1987), which is incorporated by reference herein in its entirety. RNA samples ([…]) are separated on 0.9% agarose/formaldehyde gels and transferred onto nylon membranes (Boehringer Mannheim, Germany). Membranes are prehybridized in Hybrisol I (Oncor, Gaithersburg, Md.) and 0.5 mg/ml sonicated salmon sperm DNA (Boehringer) at 42° C. for 3 hours and are hybridized at 42° C. with rat EP2 and mouse EP4 cDNA probes labeled with [^32P]-dCTP (Amersham, Buckinghamshire, UK) by random priming using the rediprime kit (Amersham). After hybridization, membranes are washed 4 times in 2×SSC+0.1% SDS at room temperature for a total of 1 hour and once with 0.2×SSC+0.1% SDS at 55° C. for 1 hour and then exposed to Kodak XAR 2 film at −70° C. using intensifying screens. […]

The test system of assay [3] is EP4 mRNA. The experiment in a line: EP4 mRNA levels in bone tissue after systemic injection (Northern blot). In kind it is in vivo, rat. The settings on record: tibial diaphysis, 3-6 mg/Kg systemic.
Description: For mRNA localization experiments, 5-week old Sprague-Dawley rats (Charles River) are euthanized by CO2, their tibiae and calvariae are excised, cleaned of soft tissues and frozen immediately in liquid nitrogen. […] Animals are euthanized at several time points post-injection and their tibiae and calvariae, as well as samples from lung and kidney tissues are frozen in liquid nitrogen.
as §3, with “(Amersham).” for “(Amersham). After hybridization, membranes are washed 4 times in 2×SSC+0.1% SDS at room temperature for a total of 1 hour and once with 0.2×SSC+0.1% SDS at 55° C. for 1 hour and then exposed to Kodak XAR 2 film at −70° C. using intensifying screens.”

For assay [4], the system named is EP2 mRNA. Description: EP2 mRNA in bone tissue after systemic injection (Northern blot). In kind it is in vivo, rat. How it is done: (§4) For mRNA localization experiments, 5-week old Sprague-Dawley rats (Charles River) are euthanized by CO2, their tibiae and calvariae are excised, cleaned of soft tissues and frozen immediately in liquid nitrogen. For EP4 regulation experiments, 6-week old rats are given a single injection of either vehicle (7% ethanol in sterile water) or an anabolic dose of PGE2 (Cayman Chemical, Ann Arbor, Mich., 3-6 mg/kg in the same vehicle) intraperitoneally. Animals are euthanized at several time points post-injection and their tibiae and calvariae, as well as samples from lung and kidney tissues are frozen in liquid nitrogen.
as §2

The test system of assay [5] is EP4 mRNA. The experiment in a line: Localization of EP4 mRNA expression in bone tissue by in situ hybridization. In kind it is in vivo. To be noted: single anabolic dose, rat tibia. Here is the method:
as §4
Frozen tibiae are sectioned coronally at […] thickness and sections are mounted on charged slides (Probe On Plus, Fisher Scientific, Springfield, N.J.) and are kept at −70° C. until hybridization. cRNA probes are labeled with ^35S-UTPgS (ICN, Costa Mesa, Calif.) using a Riboprobe II kit (Promega Madison, Wis.). Hybridization is performed overnight at 50° C. […]
In situ hybridization is used in order to localize cells expressing EP4 in bone. In control experiment (vehicle-injected) rats, low expression of EP4 is detected in bone marrow cells. […]

For the molecule `CCCCC[C@H](O)/C=C/[C@H]1[C@H](O)CC(=O)[C@@H]1C/C=C\CCCC(=O)O` [PGE2], the “effect on intracellular cAMP” value in the assay with intracellular cAMP (RCT-3 cells) is “markedly induced”; in the assay on intracellular cAMP (ROS 17/2.8 rat osteosarcoma cells) it was “no effect”; with intracellular cAMP (TRAB-11 cells), “markedly induced”. For the same molecule, the “effect on EP4 mRNA levels” value in the assay on EP4 mRNA [1] (RCT-3 cells) is listed as “no effect”; in the assay on EP4 mRNA [1] (RP-1 periosteal cells, 10^−6 M) it was “rapidly increases”; in the assay on EP4 mRNA [3] (five-week-old male rats) it was “rapidly increased”. Also, the “time of peak EP4 mRNA level after treatment” value in the assay on EP4 mRNA [1] (RP-1 periosteal cells, 10^−6 M) was found to be 2 h. Besides, the “EP2 mRNA expression before or after treatment” value in the assay with EP2 mRNA [2] is given as “not expressed”. Besides, in the assay with EP4 mRNA [3], the “time of peak EP4 mRNA level after injection” value is reported as 2 h. In addition, the “induction of EP2 mRNA” value in the assay on EP2 mRNA [4] is on record as “does not induce”. For the same molecule, the “expression of EP4 in bone marrow cells” value in the assay on EP4 mRNA [5] is “increased”.
